Data taken from US20250051356A1, “RIFABUTIN ANALOGS FOR THE TREATMENT OF DISEASE” (priority 2021, published 2025).
Values after ≈ are worked out from the molar mass of the structure shown. Read-outs that look alike come from different tables or passages of the source.

Tests used:
Format in all cases: cell-based
M. avium (ATCC 25291) = test: MIC against M. avium in CAMHB + ADC; settings: Mycobacterium avium
M. xenopi (ATCC 19250) = test: MIC against M. xenopi in CAMHB + ADC; settings: Mycobacterium xenopi
M. kansasii (ATCC 12478) = test: MIC against M. kansasii in CAMHB + ADC; settings: Mycobacterium kansasii
[1] = test system: A. baumannii (HUMC1 strain); test: MIC by broth microdilution against A. baumannii in RPMI + 10% FCS; settings: Acinetobacter baumannii, read-out: MIC A. baumannii
[2] = test system: S. aureus (UAMS-1625 strain); test: MIC by broth microdilution against S. aureus; settings: Staphylococcus aureus, read-out: MIC S. aureus
[3] = test system: M. abscessus subsp. abscessus ATCC 19977; test: MIC against M. abscessus in Middlebrook 7H9 + ADC; settings: Mycobacteroides abscessus
[4] = ATCC25291, ATCC 25291, CAMHB + ADC (5%), read-out: MIC M. avium
[5] = ATCC19250, read-out: MIC M. xenopi
[6] = ATCC12478, ATCC 12478, CAMHB + ADC (5%), read-out: MIC M. kansasii
[7] = ATCC19977, ATCC 19977, 7H9 + ADC, read-out: MIC M. abscessus
[8] = ATCC19250, ATCC 19250, CAMHB + ADC (5%), read-out: MIC M. xenopi
[9] = ATCC25291, read-out: MIC M. avium
[10] = ATCC12478, read-out: MIC M. kansasii
[11] = ATCC19977, read-out: MIC M. abscessus

SMILES	MIC (M. avium (ATCC 25291); [4]) [µg/mL]	MIC (M. xenopi (ATCC 19250); [5]) [µg/mL]	MIC (M. kansasii (ATCC 12478); [6]) [µg/mL]	MIC ([1]; HUMC1 strain, RPMI + 10% FCS) [µg/mL]	MIC [2] [µg/mL]	MIC [3, 7] [µg/mL]	MIC (M. xenopi (ATCC 19250); [8]) [µg/mL]	MIC (M. avium (ATCC 25291); [9]) [µg/mL]	MIC (M. kansasii (ATCC 12478); [10]) [µg/mL]	MIC [1] [µg/mL]	MIC [3, 11] [µg/mL]
CO[C@H]1/C=C/OC2(C)Oc3c(C)c(O)c4c(c3C2=O)C2=NC3(CCN(CC(C)C)CC3)NC2=C(NC(=O)/C(C)=C\C=C\[C@H](C)[C@H](O)[C@@H](C)[C@@H](O)[C@@H](C)[C@H](OC(=O)CC(=O)N2CCN(C3CCCCC3)CC2)[C@@H]1C)C4=O (stereo partly drawn) [Compound 96]	0.03	0.125	0.008	0.008	0.125 (≈ 0.12 µM)	0.25	–	–	–	–	–
CO[C@H]1/C=C/OC2(C)Oc3c(C)c(O)c4c(c3C2=O)C2=NC3(CCN(CC(C)C)CC3)NC2=C(NC(=O)/C(C)=C\C=C\[C@H](C)[C@H](O)[C@@H](C)[C@@H](O)[C@@H](C)[C@H](OC(=O)CC(=O)NCCCN(C)c2ccccc2)[C@@H]1C)C4=O (stereo partly drawn) [Compound 97]	0.125	–	0.004	0.008	0.25 (≈ 0.241 µM)	0.25	0.06	–	–	–	–
CO[C@H]1/C=C/O[C@@]2(C)Oc3c(C)c(O)c4c(c3C2=O)C2=NC3(CCN(CC(C)C)CC3)NC2=C(NC(=O)/C(C)=C\C=C\[C@H](C)[C@H](O)[C@@H](C)[C@@H](O)[C@@H](C)[C@H](OC(=O)CC(=O)N2CCN(c3ccccn3)CC2)[C@@H]1C)C4=O [Compound 99]	0.125	–	0.004	0.008	0.06 (≈ 0.0579 µM)	0.25	0.125	–	–	–	–
CO[C@H]1/C=C/OC2(C)Oc3c(C)c(O)c4c(c3C2=O)C2=NC3(CCN(CC(C)C)CC3)NC2=C(NC(=O)/C(C)=C\C=C\[C@H](C)[C@H](O)[C@@H](C)[C@@H](O)[C@@H](C)[C@H](OC(=O)CC(=O)N2CCC(c3ccccc3)CC2)[C@@H]1C)C4=O (stereo partly drawn) [Compound 101]	–	0.03	–	–	0.5 (≈ 0.483 µM)	–	–	0.03	0.002	0.06	0.125
CO[C@H]1/C=C/OC2(C)Oc3c(C)c(O)c4c(c3C2=O)C2=NC3(CCN(CC(C)C)CC3)NC2=C(NC(=O)/C(C)=C\C=C\[C@H](C)[C@H](O)[C@@H](C)[C@@H](O)[C@@H](C)[C@H](OC(=O)CC(=O)N2C3CCC2CC(c2ccccc2)C3)[C@@H]1C)C4=O (stereo partly drawn) [Compound 102]	0.03	0.06	–	–	0.5 (≈ 0.472 µM)	–	–	–	0.008	0.03	0.25
CO[C@H]1/C=C/O[C@@]2(C)Oc3c(C)c(O)c4c(c3C2=O)C2=NC3(CCN(CC(C)C)CC3)NC2=C(NC(=O)/C(C)=C\C=C\[C@H](C)[C@H](O)[C@@H](C)[C@@H](O)[C@@H](C)[C@H](OC(=O)CC(=O)N2CCC(c3ccncc3)CC2)[C@@H]1C)C4=O [Compound 104]	0.25	–	0.004	0.004	0.06 (≈ 0.058 µM)	0.25	0.125	–	–	–	–
CO[C@H]1/C=C/O[C@@]2(C)Oc3c(C)c(O)c4c(c3C2=O)C2=NC3(CCN(CC(C)C)CC3)NC2=C(NC(=O)/C(C)=C\C=C\[C@H](C)[C@H](O)[C@@H](C)[C@@H](O)[C@@H](C)[C@H](OC(=O)CC(=O)N2CCC(Nc3ccc(C)cc3)CC2)[C@@H]1C)C4=O [Compound 105]	–	0.03	–	–	0.25 (≈ 0.235 µM)	–	–	0.125	0.004	0.06	0.25
COc1cc(NC2CCN(C(=O)CC(=O)O[C@H]3[C@H](C)[C@H](O)[C@H](C)[C@@H](O)[C@@H](C)/C=C/C=C(/C)C(=O)NC4=C5NC6(CCN(CC(C)C)CC6)N=C5c5c(c(O)c(C)c6c5C(=O)[C@@](C)(O/C=C/[C@H](OC)[C@H]3C)O6)C4=O)CC2)cc(OC)c1 [Compound 106]	0.5	–	0.03	0.008	0.25 (≈ 0.225 µM)	0.25	0.125	–	–	–	–
CO[C@H]1/C=C/O[C@@]2(C)Oc3c(C)c(O)c4c(c3C2=O)C2=NC3(CCN(CC(C)C)CC3)NC2=C(NC(=O)/C(C)=C\C=C\[C@H](C)[C@H](O)[C@@H](C)[C@@H](O)[C@@H](C)[C@H](OC(=O)CC(=O)N2CCC(Nc3ccccc3C#N)CC2)[C@@H]1C)C4=O [Compound 107]	–	0.06	–	–	0.25 (≈ 0.233 µM)	–	–	0.125	0.016	0.5	0.125
CO[C@H]1/C=C/O[C@@]2(C)Oc3c(C)c(O)c4c(c3C2=O)C2=NC3(CCN(CC(C)C)CC3)NC2=C(NC(=O)/C(C)=C\C=C\[C@H](C)[C@H](O)[C@@H](C)[C@@H](O)[C@@H](C)[C@H](OC(=O)C(C)C(=O)N2CCCN(c3ccc(F)cc3)CC2)[C@@H]1C)C4=O (stereo partly drawn) [Compound 108]	0.25	–	0.008	0.06	0.25 (≈ 0.231 µM)	0.25	0.06	–	–	–	–
